In patent US20170321282A1, “IMPROVED TREATMENTS OF CANCER RESISTANT TO TAXOIDS” (INSTITUT GUSTAVE ROUSSY, priority 2014, published 2017):

Tests used:
[1] = system: SHISA3 expression in IGR-CaP1-R25 tumors; experiment: SHISA3 mRNA expression by quantitative PCR in docetaxel-resistant xenograft tumors; format: in vivo, nude athymic mice; details: docetaxel vs vehicle
Source text: (§1) FIG. 1: Expression of SHISA3 in docetaxel-resistant prostate cancer cells and in other cancers A. Real-time qRT-PCR showing the inhibition of SHISA3 gene expression in docetaxel-resistant IGR-CaP1-R and PC3-R cells. B. Whole cell extracts of parental and drug-resistant cells were subjected to immunoblotting with antibodies specific for SHISA3 or β-actin (loading control). Arrows indicate specific bands corresponding to SHISA3, star indicates a non-specific band. C. […] D-E. SHISA3 mRNA was assessed by determining ΔCt in normal tissues and in several solid tumors. Results were normalized to the universal RNA included in each panel. In D, out of all the tested tissues for SHISA3 expression, only tissues with the highest expression were shown. In E, the bars represent the mean. P value was derived from the two-tailed Student's t test. F. Subcellular localization after transfection of SHISA3-Flag-GFP in HEK cells. Cells were analyzed by confocal microscopy. GFP stained the transfected cells, SHISA3 was labeled with anti-SHISA3 antibody (red) and nucleus was stained with Dapi. […] Secondary antibodies were used as followed: Alexa-568 for SHISA3 and Alexa-647 for Calnexin and GM130. G. SHISA3 mRNA expression was assessed in vivo on nude athymic mice models. […] SHISA3 expression has been obtained by quantitative PCR and normalized by its expression in a control sample of Universal RNA. […]

[2] = system: SHISA3 expression in IGR-CaP1 tumors; experiment: SHISA3 mRNA expression by quantitative PCR in docetaxel-sensitive xenograft tumors; format: in vivo, nude athymic mice; details: docetaxel vs vehicle
Source text: as §1

[3] = system: resistant IGR-CaP1-R100 cells; experiment: Colony formation (clonogenicity) assay, docetaxel-resistant cells; format: cell-based, human; details: 25 μM LY2157299 alone, 72 h pretreatment, stained 2 weeks later
Procedure: (§2) Colony formation assay. Cells were pretreated with 25 μM LY2157299 or vehicle for 72 hours. Then, cells were treated with Docetaxel and/or 25 μM LY2157299, control cells were treated with vehicle. Docetaxel was used at 12 nM in parental IGR-CaP1 and 100 nM in resistant IGR-CaP1-R100. Cells were stained with Crystal Violet 2 weeks later. Data are represented as mean±SD. […] Representative cell colonies obtained in each condition is shown.
(§3) IGR-CaP1 and IGR-CaP1-R cells were plated in 6 well plates for 24 hours. Cells were pre-treated with 25 μM LY2157299 or vehicle for 72 hours, and then co-treated with LY2157299 and docetaxel (12 nM for parental cells, 100 nM for resistant cells). After 2 weeks, clones were methanol fixed and stained using Crystal violet (sigma). Clones were counted using ImageJ software.

parental IGR-CaP1 cells = experiment: Colony formation (clonogenicity) assay, parental cells; format: cell-based, human; details: 25 μM LY2157299 alone, 72 h pretreatment, stained 2 weeks later
Procedure: as §2, §3

[4] = system: parental IGR-CaP1 and PC3 cells; experiment: EMT induction by TGFβ1, immunoblot of SHISA3 and EMT markers; format: cell-based, human; details: 10 ng/ml TGFβ1, 5 days
Source text: A. Schematic structure of SHISA3 and SHISA3-Flag sharing a signal peptide (black box), an amino-terminal CRD (blue box), a predicted transmembrane segment (TM), and a carboxy-terminal proline-rich region (Grey box). The position of the FLAG tag (red box) is indicated. B. SHISA3 and endogenous TGFβR2 interaction. Cells extracts from IGR-CaP1, PC3 and HEK cells transfected with SHISA3-Flag were immunoprecipitated with anti-TGFβR2, anti-EGFR, anti-Flag antibodies or IgG as control and analyzed by immunoblot using anti-TGFβR2, anti-EGFR and anti-SHISA3 antibodies. Input represents 10% of the IP. C. Co-localization of SHISA3 and TGFβR2 in cytoplasmic granules and speckles at the membrane. Subcellular localizations of SHISA3 and TGFβR2 were analyzed by confocal microscopy after co-transfection of SHISA3-Flag and HA-TGFβR2 in HEK cells using anti-SHISA3 and anti-TGFβR2 primary antibodies, and Alexa-568- and Alexa-647-conjugated secondary antibodies respectively. Nuclei were labeled with Dapi. Overlapped fluorescent signals (yellow) indicated co-localized proteins. D. SHISA3 and EMT markers expression 5 days after cell treatment with TGFβ1. […] Quantification of bands relative to beta actin is shown.
2,5.10^4 IGR-CaP1 cells and 5.10^4 PC3 cells were plated in 6-well plates for 24 hours then transiently transfected with 10 nM synthetic siRNA targeting SHISA3 gene (Stealth RNAi™, siSHISA3-94: HSS152694, siSHISA3-95: HSS152695, and siSHISA3-96: HSS152696) using lipofectamine RNAiMax (Invitrogen) or treated with 10 ng/ml TGFβ1. After 36 hours, a second treatment was performed in order to maintain EMT induction over 5 days. Negative controls were obtained by treating cells with siRNA negative controls (siNT) (Invitrogen) or TGFβ1 vehicle. Whole cell extracts were prepared in RIPA buffer complemented with proteases inhibitors (Roche) and phosphatase inhibitors (Sigma).
Fifty μg of lysates were used for Western-Blot probed with specific antibodies: SHISA3 (Abgent), E-cadherin (BD Biosciences, clone 36), N-Cadherin (BD Biosciences, Clone 32), β-catenin (Santa Cruz, clone 12F7), Vimentin (BD Pharmingen, clone RV202), Occludin (Life Technologies, Clone OC-3F10), Plakoglobin (Sigma-Aldrich, Clone 15F11), Snail (Cell Signaling, Clone C15D3), ZEB1 (Cell Signaling, D80D), EGFR (Cell Signaling, Clone D38B1), TGFβR2 (Santa Cruz, Clone E-6), Ubiquitin (Santa Cruz, Clone P4D1), Flag (Sigma, M2). β-actin (Sigma-Aldrich, Clone AC-15) was used as a loading control. Immunoblot analyses were performed using the enhanced chemoluminescence-based detection kit (Pierce).

CC(=O)O[C@@]12CO[C@@H]1C[C@H](O)[C@@]1(C)C(=O)[C@H](O)C3=C(C)[C@@H](OC(=O)[C@H](O)[C@@H](NC(=O)OC(C)(C)C)c4ccccc4)C[C@@](O)([C@@H](OC(=O)c4ccccc4)[C@H]21)C3(C)C [docetaxel]
SHISA3 gene expression in tumors [1]: did not affect its expression | SHISA3 gene expression in tumors [2]: strong decrease

Cc1cccc(-c2nn3c(c2-c2ccnc4ccc(C(N)=O)cc24)CCC3)n1 [LY2157299]
survival of resistant cells (colony formation) [3]: did not affect the survival | survival of parental cells (colony formation) (parental IGR-CaP1 cells): did not affect the survival

TGFβ: TGFβ1 purchased from R&D Systems
CDH1 expression [4]: decrease | CDH2 expression [4]: increase | VIM expression [4]: increase | SHISA3 expression ([4]; vs control cells): decrease
